# Experimental data as given in patent publication US8945540B2, “Compositions for enhancing the antibacterial activity of myeloperoxidase and methods of use thereof” (Exoxemis, Inc., priority 2008, dated 2015).
# Tests used:
# Staphylococcus aureus [1] = experiment: Control: microbicidal activity of the amino acid or analogue alone (no glucose, MPO, glucose oxidase) in the presence of blood; assay type: cell-based; conditions: amino acid alone 5 mM, MPO 0, GO 0, no glucose, blood, without replication
# From the text: As a control to determine the microbicidal activity of the amino acids alone, the foregoing procedure was followed without replication, except in the absence of glucose, MPO, and glucose oxidase.
# Staphylococcus aureus [2] = experiment: Microbicidal activity of the myeloperoxidase system (p-MPO, glucose oxidase, glucose) with amino acids in the presence of blood, CFU plate counts; synergy determination from these CFU; assay type: cell-based; conditions: for Average Viability CFU/ml 50 min / Log Reduction 50 min: single amino acid 2.5 mM, MPO 4.7 U/ml, GO 4.2 U/ml
# How it was run: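 Staphylococcus aureus grown 24 hours in TSB at 35° C was washed in saline and added at a final 2-3×10^7 CFU per mL. The bacteria were mixed in 1 mL reactions with porcine myeloperoxidase, glucose oxidase, amino acids, 150 mM sodium chloride and 3% venous whole blood. Adding glucose to 150 mM started killing. After catalase addition, survivors were counted by serial dilution plating on TSA at 37° C for 24 hours.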
# Bacillus subtilis spores = experiment: Myeloperoxidase system with beta alanine and L-alanine against spores in the presence of blood; assay type: cell-based; conditions: 2 hours, MPO 25 μg/mL (9.4 U/mL), GO 8.3 U/mL
# Procedure: The effect of a two-way combination of beta alanine and L-alanine, as potential enhancing agents, for MPO microbicidal action against Bacillus subtilis spores in the presence of blood, was determined following the procedure of Example 2. However, in this case each test contained a single low concentration of MPO (25 μg/mL or 9.4 U/mL) and glucose oxidase (8.3 U/mL). […] The effect of both L-alanine and beta alanine alone on the myeloperoxidase antimicrobial activity against Bacillus subtilis spores was tested for comparison.
# The nature of the relationship between beta alanine and L-alanine was examined following the synergy determination method described above.
# Pseudomonas aeruginosa = experiment: Myeloperoxidase system with amino acids in the presence of blood (Example 9); assay type: cell-based; conditions: 60 minutes, MPO 25 μg/mL, GO 8.3 U/mL, L-valine/glycine 2.5 μmol/mL each, beta alanine 5 mM
# Procedure: (§1) The effect of two way combinations of amino acids glycine and valine, and individually beta alanine, as potential enhancing agents for MPO microbicidal action against Pseudomonas aeruginosa, Staphylococcus aureus and Candida albicans, in the presence of blood, was determined following the procedure of Example 2. Each organism was tested against a single low concentration of MPO (25 μg/mL or 9.4 U/mL) and glucose oxidase (8.3 U/mL). The two amino acid activators were each added at a final concentration of 2.5 μmol/mL and the individual amino acid, beta alanine, was tested at a single concentration of 5 μmol/mL. The effect of no amino acid containing formulations on the myeloperoxidase antimicrobial activity against these organisms was tested for comparison.
# Candida albicans = experiment: as above; assay type: cell-based; conditions: MPO 25 μg/mL, GO 8.3 U/mL, L-valine/glycine 2.5 μmol/mL each, beta alanine 5 μmol/mL
# Procedure: as §1
# S. aureus = experiment: MIC, modified CLSI broth microdilution; assay type: cell-based, Staphylococcus aureus; conditions: for MIC by the modified method versus published quality control ranges: S. aureus ATCC 29213, inoculum prepared in Diluent solution
# From the text: (§2) All clinical isolates were obtained from the culture collection of Eurofins Medinet Anti-Infective Services (Herndon, Va.), and represent diverse geographical regions. They were originally derived from clinical specimens and identified using standard microbiological methods (see Table 33 below for details). Escherichia coli ATCC 25922, Staphylococcus aureus ATCC 25923, S. aureus ATCC 29213, Pseudomonas aeruginosa ATCC 27853, and Enterococcus faecalis ATCC 29212 were used as quality control strains for the Enhanced MPO Solution and comparator agents to validate the modified Clinical and Laboratory Standards Institute (CLSI, formally NCCLS) broth microdilution method.
# (§3) Modifications were made to the standard broth microdilution method to accommodate the rapid in vitro activity of the Enhanced MPO Solution as described below. Each antimicrobial agent and Concentrate solution was diluted in double strength cation-adjusted Mueller-Hinton Broth (CAMHB) and dispensed in mircrodilution trays. All β-hemolytic streptococci were tested in double strength CAMHB supplemented with 5% lysed horse blood. Isolates were prepared by suspending several colonies (four to six) from an overnight culture on Trypticase Soy Agar (TSA) with 5% sheep blood into sterile saline and the density adjusted to a 0.5 McFarland standard (˜10^8 CFU/ml). Standardized bacterial suspensions were further diluted in double strength Diluent solution so that approximately 5×10^5 CFU/ml was mixed with serial drug dilutions. The addition of Diluent solution to the Concentrate solution activates the enzyme system, which in turn exerts its rapid mode of action. The microdilution trays were incubated in ambient air at 35° C. for 18 to 24 h.
# (§4) MIC ranges were established for the Enhanced MPO Solution by testing over 20 replicates of one lot of the Enhanced MPO Solution against S. aureus ATCC 29213 and E. coli ATCC 25922. Quality control parameters were then determined for the Enhanced MPO Solution by testing three lots of the Concentrate solution used for preparation of the final Enhanced MPO Solution formulation. Testing was performed in duplicate against S. aureus ATCC 29213 and E. coli ATCC 25922. The effects of modifying the standard broth microdilution test were also assessed with antibiotics with known quality control limits to validate the CLSI broth microdilution method.
# E. coli = experiment: MIC, modified CLSI broth microdilution; assay type: cell-based, Escherichia coli; conditions: E. coli ATCC 25922; inoculum prepared in Diluent solution
# From the text: as §2, §3, §4
# [3] = test system: streptococci groups C, F, and G; experiment: MIC, modified CLSI broth microdilution (CAMHB with 5% lysed horse blood); assay type: cell-based, Streptococcus Group C, Group F, Group G; conditions: for MIC Range: range for all strains tested
# Procedure: (§5) Modifications were made to the standard broth microdilution method to accommodate the rapid in vitro activity of the Enhanced MPO Solution as described below. Each antimicrobial agent and Concentrate solution was diluted in double strength cation-adjusted Mueller-Hinton Broth (CAMHB) and dispensed in mircrodilution trays. All β-hemolytic streptococci were tested in double strength CAMHB supplemented with 5% lysed horse blood. Isolates were prepared by suspending several colonies (four to six) from an overnight culture on Trypticase Soy Agar (TSA) with 5% sheep blood into sterile saline and the density adjusted to a 0.5 McFarland standard (˜10^8 CFU/ml). Standardized bacterial suspensions were further diluted in double strength Diluent solution so that approximately 5×10^5 CFU/ml was mixed with serial drug dilutions. […] The microdilution trays were incubated in ambient air at 35° C. for 18 to 24 h.
# S. epidermidis = experiment: MIC, modified CLSI broth microdilution; assay type: cell-based, Staphylococcus epidermidis
# Procedure: as §5
# S. pyogenes = experiment: MIC, modified CLSI broth microdilution (CAMHB with 5% lysed horse blood); assay type: cell-based; conditions: Streptococcus pyogenes, 33 clinical isolates
# Procedure: as §5
# S. agalactiae = experiment: as above; assay type: cell-based; conditions: Streptococcus agalactiae, 34 clinical isolates
# Procedure: as §5
# E. faecium = experiment: MIC, modified CLSI broth microdilution; assay type: cell-based; conditions: Enterococcus faecium, 22 clinical isolates
# Procedure: as §5
# E. faecalis = experiment: MIC, modified CLSI broth microdilution; assay type: cell-based, Enterococcus faecalis
# From the text: as §2
# as §3, with “The addition of Diluent solution to the Concentrate solution activates the enzyme system, which in turn exerts its rapid mode of action. The microdilution trays were incubated in ambient air at 35° C. for 18 to 24 h.” left out
# MIC ranges were established for the Enhanced MPO Solution by testing over 20 replicates of one lot of the Enhanced MPO Solution against S. aureus ATCC 29213 and E. coli ATCC 25922. Quality control parameters were then determined for the Enhanced MPO Solution by testing three lots of the Concentrate solution used for preparation of the final Enhanced MPO Solution formulation. […] The effects of modifying the standard broth microdilution test were also assessed with antibiotics with known quality control limits to validate the CLSI broth microdilution method.
# [4] = MPO 100 μg/mL, AA 20 mM, 30 min
# [5] = MPO 100 μg/mL, AA 20 mM, 60 min
# [6] = Table 4, amino acid 5 mM (none: 0 mM), MPO 38 U/ml, GO 33.3 U/ml, blood
# [7] = Table 14, in the presence of blood, 50 min
# [8] = Table 2, amino acid 5 mM (none: 0 mM), MPO 38 U/ml, GO 33.3 U/ml, blood
# [9] = Table 10, in the presence of blood, 50 min
# [10] = Table 13, in the presence of blood, 50 min
# [11] = Streptococcus Group G, 18 clinical isolates
# [12] = Staphylococcus epidermidis, 31 clinical isolates
# [13] = Staphylococcus aureus, 109 clinical isolates
# [14] = Enterococcus faecalis, 33 clinical isolates
structure (smiles),measurement,setting,value
NCCC(=O)O [Beta alanine],Average Viability CFU/ml 60 min,Staphylococcus aureus [1],25500000 CFU/ml
same,Log Reduction 60 min,Staphylococcus aureus [1],0.0
same,Log 10 (CFU + 1) Survivors,"Staphylococcus aureus [2]; MPO 25 μg/mL, AA 5 mM, 30 min",0.0
same,Log 10 (CFU + 1) Survivors,"Staphylococcus aureus [2]; MPO 25 μg/mL, AA 5 mM, 60 min",0.0
same,Log 10 (CFU + 1) Survivors,"Staphylococcus aureus [2]; MPO 25 μg/mL, AA […], 30 min",0.0
same,Log 10 (CFU + 1) Survivors,"Staphylococcus aureus [2]; MPO 25 μg/mL, AA […], 60 min",0.0
same,Log 10 (CFU + 1) Survivors,"Staphylococcus aureus [2]; MPO 100 μg/mL, AA 5 mM, 30 min",0.0
same,Log 10 (CFU + 1) Survivors,"Staphylococcus aureus [2]; MPO 100 μg/mL, AA 5 mM, 60 min",0.0
same,Log 10 (CFU + 1) Survivors,Staphylococcus aureus [2]; [4],0.0
same,Log 10 (CFU + 1) Survivors,Staphylococcus aureus [2]; [5],0.0
same,Average Viability CFU/ml 60 min,Staphylococcus aureus [2]; [6],0 CFU/ml
same,Log Reduction 60 min,Staphylococcus aureus [2]; [6],7.4
same,Average Viability CFU/ml 50 min,Staphylococcus aureus [2]; [7],6000000 CFU/ml
same,Log Reduction 50 min,Staphylococcus aureus [2]; [7],0.7
same,Average Viability CFU/ml 50 min,Staphylococcus aureus [2]; blood,505000 CFU/ml
same,Log Reduction 50 min,Staphylococcus aureus [2]; blood,1.7
same,increased performance over the MPO system without amino acids,"Staphylococcus aureus [2]; within 30 minutes, MPO 25 μg/mL, GO 8.3 U/mL, blood, 5 μmol/mL",6.8 logs
same,kill of S. aureus (in words),"Staphylococcus aureus [2]; within 60 minutes, lower concentrations of amino acid and MPO, blood",complete kill
same,CFU survivors,Bacillus subtilis spores,3100000 CFU
same,enhancing effect over the MPO system without amino acids,Pseudomonas aeruginosa,4.6 logs
same,improvement in microbicidal activity over the MPO system without amino acids,Candida albicans,1.9 logs
C[C@H](N)C(=O)O [L-Alanine],log reduction at 5000 µM,"Staphylococcus aureus [1]; Staphylococcus aureus, 1 h, read-out: Log Reduction 60 min",0
same,Average Viability CFU/ml 60 min,Staphylococcus aureus [1],24100000 CFU/ml
same,Log 10 (CFU + 1) Survivors,"Staphylococcus aureus [2]; MPO 25 μg/mL, AA 5 mM, 30 min",6.9
same,Log 10 (CFU + 1) Survivors,"Staphylococcus aureus [2]; MPO 25 μg/mL, AA 5 mM, 60 min",4.1
same,Log 10 (CFU + 1) Survivors,"Staphylococcus aureus [2]; MPO 25 μg/mL, AA […], 30 min",7.0
same,Log 10 (CFU + 1) Survivors,"Staphylococcus aureus [2]; MPO 25 μg/mL, AA […], 60 min",4.7
same,Log 10 (CFU + 1) Survivors,"Staphylococcus aureus [2]; MPO 100 μg/mL, AA 5 mM, 30 min",5.1
same,Log 10 (CFU + 1) Survivors,"Staphylococcus aureus [2]; MPO 100 μg/mL, AA 5 mM, 60 min",0.0
same,Log 10 (CFU + 1) Survivors,Staphylococcus aureus [2]; [4],6.1
same,Log 10 (CFU + 1) Survivors,Staphylococcus aureus [2]; [5],0.0
same,Average Viability CFU/ml 60 min,Staphylococcus aureus [2]; [8],7 CFU/ml
same,Log 10 (CFU + 1) Survivors 60 min,Staphylococcus aureus [2]; [8],0.9
same,Log Reduction 60 min,Staphylococcus aureus [2]; [8],6.5
same,Average Viability CFU/ml 50 min,Staphylococcus aureus [2]; [9],9750000 CFU/ml
same,Log Reduction 50 min,Staphylococcus aureus [2]; [9],0.4
same,Average Viability CFU/ml 50 min,Staphylococcus aureus [2]; [10],2230000 CFU/ml
same,Log Reduction 50 min,Staphylococcus aureus [2]; [10],1.0
same,Average Viability CFU/ml 50 min,Staphylococcus aureus [2]; [7],2215000 CFU/ml
same,Log Reduction 50 min,Staphylococcus aureus [2]; [7],1.1
same,CFU survivors,Bacillus subtilis spores,520000 CFU
same,log reduction,Bacillus subtilis spores,1.5 log
Cc1nnc(SCC2=C(C(=O)O)N3C(=O)[C@@H](NC(=O)Cn4cnnn4)[C@H]3SC2)s1 [cefazolin],MIC by the modified method versus published quality control ranges,S. aureus,within previously published quality control ranges
same,MIC by the modified method versus published quality control ranges,E. coli,within previously published quality control ranges
C/C(=C\C(=O)OCCCCCCCCC(=O)O)C[C@@H]1OC[C@H](C[C@@H]2O[C@H]2[C@@H](C)[C@H](C)O)[C@@H](O)[C@H]1O [mupirocin],MIC Range,"[3]; Streptococcus Group C, 8 clinical isolates",0.06 to 0.5 µg/mL
same,MIC Range,"[3]; Streptococcus Group F, 2 clinical isolates",0.25-0.25 μg/ml
same,MIC50,[3]; [11],0.12 µg/mL
same,MIC90,[3]; [11],0.12 µg/mL
same,MIC Range,[3]; [11],0.06 to 0.5 µg/mL
same,MIC50,S. epidermidis; [12],0.12 µg/mL
same,MIC90,S. epidermidis; [12],> 32 µg/mL
same,"MIC range, upper end",S. epidermidis; clinical isolates,> 32 µg/mL
same,MIC by the modified method versus published quality control ranges,S. aureus,within previously published quality control ranges
same,MIC50,S. aureus; [13],0.06 µg/mL
same,MIC90,S. aureus; [13],0.12 µg/mL
same,"MIC range, upper end",S. aureus; clinical isolates,> 32 µg/mL
same,MIC50,S. pyogenes,0.12 µg/mL
same,MIC90,S. pyogenes,0.25 µg/mL
same,MIC Range,S. pyogenes; range for all strains tested,0.06 to 0.5 µg/mL
same,MIC50,S. agalactiae,0.5 µg/mL
same,MIC90,S. agalactiae,0.5 µg/mL
same,MIC Range,S. agalactiae; range for all strains tested,0.12 to 2 µg/mL
same,MIC50,E. faecium,0.25 µg/mL
same,MIC90,E. faecium,0.25 µg/mL
same,MIC Range,E. faecium; range for all strains tested,0.06 to 0.5 µg/mL
same,MIC50,E. faecalis; [14],32 µg/mL
same,MIC90,E. faecalis; [14],> 32 µg/mL
same,"MIC range, upper end",E. faecalis; clinical isolates,> 32 µg/mL
